According to ChEMBL document CHEMBL4342484, “Structure-Activity Relationship for the Oxadiazole Class of Antibacterials” (ACS Med Chem Lett, 2020):
Converted amounts (≈) assume the structure as drawn.

Assays:
Staphylococcus aureus = experiment: Antibacterial activity against Staphylococcus aureus ATCC 29213 by broth microdilution method; format: functional
[1] = Plasma protein binding in human at […] incubated for 2 hrs by UPLC analysis; format: ADME, cell-free; details: read-out: PPB (converted)
HepG2 = experiment: Cytotoxicity against human HepG2 cells assessed as reduction in cell viability by XTT assay; format: cell-based
[2] = Hemolytic activity in human RBC relative to control; format: ADME, cell-based, Erythrocyte; details: red blood cells (erythrocytes), read-out: Activity

Compound	MIC (Staphylococcus aureus) [µg/mL]	other results
CN(C)C(=O)Oc1ccc(-c2noc(-c3ccc(O)cc3)n2)cc1	≥ 128	–
Clc1c[nH]nc1-c1nc(-c2ccc(OC3CCCC3)cc2)no1	≥ 128	–
Clc1c[nH]nc1-c1nc(-c2ccc(Oc3ccc(I)cc3)cc2)no1	1 (≈ 2.15 µM)	fraction unbound at 2 h [1]: 0.095; IC50 (HepG2): 30.7 µg/mL (≈ 66.1 µM); hemolysis [2]: 3.1%
CS(=O)(=O)c1ccc(Oc2ccc(-c3noc(-c4n[nH]cc4Cl)n3)cc2)cc1	128 (≈ 307 µM)	–
CC(C)(C)OC(=O)N1CCC(Oc2ccc(-c3noc(-c4n[nH]cc4Cl)n3)cc2)CC1	≥ 128	–
CN1CCCC(Oc2ccc(-c3noc(-c4n[nH]cc4Cl)n3)cc2)C1 (stereo unspecified)	128 (≈ 356 µM)	–
Clc1ccc(Oc2ccc(-c3noc(-c4n[nH]cc4Cl)n3)cc2)cc1Cl	1 (≈ 2.45 µM)	fraction unbound at 2 h [1]: 0.022; IC50 (HepG2): 17.2 µg/mL (≈ 42.2 µM); hemolysis [2]: 1.8%
Oc1ccc(-c2nc(-c3ccc4oc5ccccc5c4c3)no2)cc1	≥ 128	–
Fc1ccc(Oc2ccc(-c3noc(-c4n[nH]cc4Cl)n3)cc2)cc1Cl	2 (≈ 5.11 µM)	fraction unbound at 2 h [1]: 0.088; IC50 (HepG2): 21 µg/mL (≈ 53.7 µM); hemolysis [2]: 2.9%
Clc1c[nH]nc1-c1nc(-c2ccc(OC3CN4CCC3CC4)cc2)no1 (stereo unspecified)	128 (≈ 344 µM)	–
Oc1ccc(-c2nc(-c3ccc4c(c3)Oc3ccccc3O4)no2)cc1	≥ 128	–
COc1ccc(-c2noc(-c3n[nH]cc3Cl)n2)cc1	≥ 128	–
FC(F)(F)Oc1ccc(-c2noc(-c3ccc4[nH]ccc4c3)n2)cc1	≥ 128	–
CN1[C@@H]2CC[C@@H]1CC(Oc1ccc(-c3noc(-c4ccc(O)cc4)n3)cc1)C2 (stereo partly specified)	32 (≈ 84.8 µM)	–
Fc1ccc(Oc2ccc(-c3noc(-c4n[nH]cc4Cl)n3)cc2)cc1F	0.5 (≈ 1.33 µM)	fraction unbound at 2 h [1]: 0.011; IC50 (HepG2): 17.7 µg/mL (≈ 47.2 µM); hemolysis [2]: 1.3%
COc1ccc2oc3ccc(-c4noc(-c5ccc(O)cc5)n4)cc3c2c1	≥ 128	–
Cl.NC1CCC(Oc2ccc(-c3noc(-c4ccc(O)cc4)n3)cc2)CC1 (stereo unspecified)	≥ 128	–

The next lines start with results.

MIC (Staphylococcus aureus) [µg/mL]	Compound	other results
≥ 128	CC(C)(C)Oc1ccc(-c2noc(-c3ccc(O)cc3)n2)cc1	–
16 (≈ 47.4 µM)	Oc1ccc(-c2nc(-c3ccc(OC4CCNCC4)cc3)no2)cc1	–
≥ 128	CS(=O)(=O)Oc1ccc(-c2noc(-c3ccc(O)cc3)n2)cc1	–
> 128	CC(=O)NCCOc1ccc(-c2noc(-c3ccc(O)cc3)n2)cc1	–
≥ 128	CC(C)(C)OC(=O)NCCCOc1ccc(-c2noc(-c3ccc(O)cc3)n2)cc1	–
64 (≈ 171 µM)	O=C(O)c1ccc(Oc2ccc(-c3noc(-c4ccc(O)cc4)n3)cc2)cc1	–
4 (≈ 9.38 µM)	O=C(c1cccc(Oc2ccc(-c3noc(-c4ccc(O)cc4)n3)cc2)c1)C(F)(F)F	–
64 (≈ 171 µM)	O=C(O)c1cccc(Oc2ccc(-c3noc(-c4ccc(O)cc4)n3)cc2)c1	–
1 (≈ 3.1 µM)	Oc1ccc(-c2nc(-c3ccc(OC(F)(F)F)cc3)no2)cc1	IC50 (HepG2): 84.9 µg/mL (≈ 263 µM); hemolysis [2]: 16%
2 (≈ 5.55 µM)	COc1ccc(Oc2ccc(-c3noc(-c4ccc(O)cc4)n3)cc2)cc1	–
≥ 128	Oc1ccc(-c2nc(-c3ccc(Oc4ccc(CBr)cc4)cc3)no2)cc1	–
64 (≈ 190 µM)	Oc1ccc(-c2nc(-c3ccc(OC4CCCNC4)cc3)no2)cc1 (stereo unspecified)	–
≥ 128	NC(=O)c1ccccc1Oc1ccc(-c2noc(-c3ccc(O)cc3)n2)cc1	–
≥ 128	CC(C)S(=O)(=O)Oc1ccc(-c2noc(-c3ccc(O)cc3)n2)cc1	–
> 128	O=C(O)c1ccccc1Oc1ccc(-c2noc(-c3ccc(O)cc3)n2)cc1	–
4 (≈ 9.45 µM)	Oc1ccc(-c2nc(-c3ccc(Oc4cccc(CBr)c4)cc3)no2)cc1	–
≥ 128	CN(C)C(=O)CCOc1ccc(-c2noc(-c3ccc(O)cc3)n2)cc1	–
16	Cl.NCCCOc1ccc(-c2noc(-c3ccc(O)cc3)n2)cc1	–
32 (≈ 119 µM)	COc1ccc(-c2noc(-c3ccc(O)cc3)n2)cc1	–
16 (≈ 46.2 µM)	Oc1ccc(Oc2ccc(-c3noc(-c4ccc(O)cc4)n3)cc2)cc1	–
